According to PubChem BioAssay (NCI):
Several values for one entry are separate records, joined by “and”; a condition that tells them apart may be missing. Equal entries are not always repeated.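 Interpolation was linear, between the two tested concentrations surrounding the appropriate level; five concentrations were tested over 48 hours in 96-well plates. GI50 is the concentration that inhibits growth by half. TGI: total growth inhibition.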

Legend:
Assay in all cases: inhibition of tumour cell growth, NCI panel, 48 h
MCF7 breast = tested on: MCF7 breast
SK-MEL-2 melanoma = tested on: SK-MEL-2 melanoma
MOLT-4 leukemia = tested on: MOLT-4 leukemia
K-562 leukemia = tested on: K-562 leukemia
OVCAR-4 ovarian = tested on: OVCAR-4 ovarian
EKVX NSCLC = tested on: EKVX NSCLC
ACHN renal = tested on: ACHN renal
DU-145 prostate = tested on: DU-145 prostate
NCI-H226 lung = tested on: NCI-H226 lung
T-47D breast = tested on: T-47D breast

SMILES | GI50 (MCF7 breast) | TGI (MCF7 breast) | GI50 (SK-MEL-2 melanoma) | TGI (SK-MEL-2 melanoma) | GI50 (MOLT-4 leukemia) | TGI (MOLT-4 leukemia) | GI50 (K-562 leukemia) | TGI (K-562 leukemia) | GI50 (OVCAR-4 ovarian) | TGI (OVCAR-4 ovarian) | GI50 (EKVX NSCLC) | TGI (EKVX NSCLC) | GI50 (ACHN renal) | TGI (ACHN renal) | GI50 (DU-145 prostate) | TGI (DU-145 prostate) | GI50 (NCI-H226 lung) | TGI (NCI-H226 lung) | GI50 (T-47D breast) | TGI (T-47D breast)
CC[C@@H](C)/C=C(C)/C=C/C(=O)c1c(O)c(-c2ccc(O)cc2)cn(OC2CC(=O)CCC(C)OC(=O)CC2O)c1=O (stereo not given in full) | 366 nM | 17 µM | 489 nM | 15.6 µM | 225 nM | 12.1 µM | 386 nM | > 47.9 µM | 233 nM | 26 µM | 1390 nM | 12.3 µM | 258 nM | 7.06 µM | 303 nM | 13.4 µM | 285 nM | 3.05 µM | 383 nM | 15.3 µM
COc1ccc(/C=C/C(=O)/C=C(O)/C=C/c2ccc(OC)c(OC)c2)cc1OC | 493 nM | > 100 µM | 13800 nM | 63.1 µM | 5380 nM | > 100 µM | 1160 nM | > 100 µM | 27600 nM | > 100 µM | 4130 nM | > 100 µM | 6970 nM | > 100 µM | 3720 nM | > 100 µM | 3590 nM | > 100 µM | 76900 nM | > 100 µM
O=C(O)c1ccc(/C=N/N=C2c3ccccc3-c3ccccc32)cc1 |  | > 100 µM |  | 75.1 µM |  | > 100 µM |  | > 100 µM |  | > 100 µM |  | > 100 µM |  | > 100 µM |  | > 100 µM |  | 45.5 µM |  | > 100 µM
C[C@]12CC[C@@H]3c4ccc(OC(=O)N(CCCl)CCCl)cc4CC[C@H]3[C@@H]1CC[C@@H]2OP(=O)(O)O | > 100000 nM | > 100 µM | 41800 nM | > 100 µM | > 59300 nM | > 100 µM | > 73500 nM | > 100 µM | > 58100 nM | > 100 µM | 33200 nM | > 100 µM | 62600 nM | > 100 µM | 59500 nM | > 100 µM | 43700 nM | > 100 µM | > 56400 nM | > 100 µM
O=C1OCC2=C1C(c1cccc(Cl)c1)c1cc3c(cc1N2CCO)CCC3 (stereo not given) | 36.3 nM | 12.9 µM | 32.3 nM | 0.441 µM | 192 nM | 20.3 µM | 47.8 nM | 14.4 µM | 60.9 nM | 19.5 µM | 295 nM | 17.2 µM | 84.6 nM | 14.6 µM | 40.6 nM | 0.425 µM | 52.7 nM | 0.912 µM | 41.4 nM | 23.2 µM
CCC(C)C1NC(=O)C(NC(=O)C(CC(C)C)N(C)C(=O)[C@@H]2CC(O)CN2C(=O)[C@H](C)O)C(C)OC(=O)[C@H](Cc2ccc(OC)cc2)N(C)C(=O)[C@@H]2CCCN2C(=O)[C@H](CC(C)C)NC(=O)C(C)C(=O)[C@H](C(C)C)OC(=O)CC1O (stereo not given in full) | < 10 nM |  | < 10 nM | 0.342 µM and 0.206 µM | 14.2 nM |  | 25 nM | 0.352 µM | 24.6 nM | 1.14 µM and 1.17 µM |  | 3.32 µM | 131 nM | 8.74 µM and 5.22 µM | 88.4 nM | 3.35 µM and 1.85 µM | 79.9 nM | 0.521 µM and 0.572 µM | 13.7 nM | 0.71 µM and 2.07 µM
Cc1c(Cl)c(C)c(Cl)c(O)c1Cl |  | > 100 µM |  | 30.3 µM |  | 54.5 µM |  | 46.3 µM |  | > 100 µM |  | 82.1 µM |  | 72.5 µM |  | > 100 µM |  | 63.3 µM |  | > 100 µM
CN1CCN(CCC=C2c3ccccc3Sc3ccc(S(=O)(=O)N(C)C)cc32)CC1 | 1910 nM and 2810 nM | 4 µM and 14 µM | 2370 nM and 2480 nM | 4.32 µM and 6.09 µM | 2910 nM and 2220 nM | 7.95 µM and 7.1 µM | 2210 nM and 1630 nM | 4.72 µM | 9500 nM and 12800 nM | > 100 µM and 58.9 µM | 9150 nM and 13600 nM | > 100 µM and 63.5 µM | 5270 nM and 10200 nM | 27.3 µM and 27.6 µM | 13000 nM and 12600 nM | > 100 µM and 26.9 µM | 7040 nM and 15900 nM | 26.9 µM and 33.7 µM | 1520 nM and 3850 nM | 3.42 µM and 16.7 µM
c1ccc(CC(Nc2cccnc2)c2ccccc2)cc1 (stereo not given) |  | > 100 µM |  | 36 µM |  | 47.7 µM |  | > 100 µM |  | > 100 µM |  | 98.3 µM |  | > 100 µM |  | > 100 µM |  | 51.4 µM |  | > 100 µM
Cc1cnc(-c2ccc(-c3ccc(NC(=O)Nc4c(F)cc(F)cc4F)cc3F)c3c2C(=O)NC3)[nH]1 | 141 nM and 410 nM | 6.53 µM and 12.8 µM | 1570 nM and 3750 nM | 14.3 µM and 21.6 µM | 68.6 nM and 212 nM | 13.1 µM and 18.1 µM | 329 nM and 660 nM | 2.96 µM and 11.5 µM | 1440 nM | 3.2 µM | 2330 nM and 2960 nM | > 100 µM | 2550 nM and 1350 nM | > 100 µM and 28.6 µM | 1100 nM and 1420 nM | 4.64 µM and 7.36 µM | 4200 nM and 6260 nM | 39.9 µM and 36.5 µM | 2980 nM and 12600 nM | 20.5 µM and 47.5 µM
COc1cc2c(cc1-c1coc3cc(O)ccc3c1=O)OCO2 |  | 90.9 µM |  | > 100 µM |  | > 100 µM |  | > 100 µM |  | 44.3 µM |  | > 100 µM |  | 40.9 µM |  | > 100 µM |  | 40.2 µM |  | 65.6 µM
Nc1n[nH]c2ccc([C@@H]3Nc4ccc5cn[nH]c5c4[C@H]4C5CCC(C5)[C@@H]34)cc12 (stereo not given in full) | 347 nM | > 76.8 µM | 621 nM | > 100 µM | 446 nM | > 100 µM | 252 nM | > 100 µM | 2630 nM | > 100 µM | 554 nM | > 100 µM | 797 nM | > 91.9 µM | 417 nM | > 100 µM | 977 nM | 50 µM | 402 nM | > 100 µM
CC(=O)ON=C1C=CC(=C(C#N)c2ccccc2)C=C1 | 319 nM | 12.8 µM | 2190 nM | 15.6 µM | 2860 nM | > 100 µM | 556 nM | > 45 µM | 5510 nM | 22 µM | 6960 nM | 42.4 µM | 772 nM | 14.2 µM | 704 nM | 2.86 µM | 2880 nM | 9.36 µM | 1050 nM | 11.3 µM
Cc1cc(C)c2c(c1)N(C)c1ncnc(-n3cnc4cc(C)ccc43)c1CC2C (stereo not given) | 3420 nM | > 100 µM | 4210 nM | 26.6 µM | 2460 nM | 9.57 µM | 1500 nM | > 100 µM | 4180 nM | 47.4 µM | 4760 nM | > 100 µM | 4070 nM | 18.3 µM | 4440 nM | 63.7 µM | 3100 nM | 17.9 µM | 4170 nM | 24.9 µM
CO/C(=C1/NC(=O)C(Cc2ccc(O)c(Br)c2)N(C)C(=O)C(C)NC(=O)CCC/C=C(\C)CCC(C)OC1=O)c1ccccc1 (stereo not given) | < 16.5 nM | 1.9 µM |  | 0.0469 µM | 119 nM | > 100 µM | 335 nM | > 100 µM | 22.5 nM |  | 42.5 nM |  | 19.2 nM | 0.0623 µM | < 18.5 nM | 1.73 µM | 365 nM | 3.17 µM | 35.4 nM | 1.34 µM
COc1cc2c(cc1OCCCN1CCN(C(=S)SCCC(C#N)(c3ccccc3)c3ccccc3)CC1)N=C[C@@H]1CCCN1C2=O | 330 nM | 1.53 µM | 1080 nM | 2.91 µM | 375 nM |  | 573 nM |  | 2150 nM | > 43.7 µM | 2170 nM | 5.27 µM | 875 nM | 2.12 µM | 469 nM |  | 1510 nM | 3.15 µM | 1580 nM | 
